From PMC3573010, “Bacillus megaterium Has Both a Functional BluB Protein Required for DMB Synthesis and a Related Flavoprotein That Forms a Stable Radical Species” (PLoS ONE, 2013)

Tests used:
BluB(Bm) = biological target: T1, BluB(Bm) (Priestia megaterium, UniProt D5DCL0); assay: HPLC of DMB formed; assay type: biochemical; details: O2 required; […] Tris-HCl pH […] NaCl, […] DTT; room temperature; FMN reduced in situ by NADH
T1 construct: native N-terminus MNSFTN by printed primer
T1 sequence (D5DCL0 1-217): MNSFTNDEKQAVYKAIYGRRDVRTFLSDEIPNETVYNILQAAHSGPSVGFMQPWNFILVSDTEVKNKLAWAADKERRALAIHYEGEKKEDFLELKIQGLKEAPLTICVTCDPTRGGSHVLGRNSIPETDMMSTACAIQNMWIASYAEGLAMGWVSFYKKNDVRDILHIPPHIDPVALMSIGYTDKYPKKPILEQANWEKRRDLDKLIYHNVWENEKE

BluB(Rc) = biological target: T2, BluB(Rc) (Rhodobacter capsulatus, UniProt D5AV14); assay: HPLC of DMB formed; stopped-flow detection of 4a-peroxyflavin at […] nm; assay type: biochemical; details: O2 required; 20 mM Tris-HCl pH 8.0, 100 mM NaCl; FMN reduced by NADH (HPLC) or dithionite (stopped-flow)
T2 construct: N-terminal His6 tag with thrombin site (pET14b), expressed in E. coli BL21star(DE3)pLysS, 25 kDa on SDS-PAGE; native N-terminus MNFEQT by printed primer
T2 sequence (D5AV14 whole entry): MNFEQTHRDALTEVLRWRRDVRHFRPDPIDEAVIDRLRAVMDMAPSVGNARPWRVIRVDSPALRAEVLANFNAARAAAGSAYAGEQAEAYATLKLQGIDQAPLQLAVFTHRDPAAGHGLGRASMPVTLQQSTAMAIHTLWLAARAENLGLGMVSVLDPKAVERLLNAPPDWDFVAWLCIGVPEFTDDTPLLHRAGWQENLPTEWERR

CbiY(Bm) = biological target: T3, CbiY(Bm) (Priestia megaterium, UniProt D5DG39); assay: UV-visible spectrum of purified holoprotein; heat release, HPLC and mass spectrometry; assay type: binding; details: non-covalently bound, co-purified
T3 construct: native N-terminus MTIISQLK by primer
T3 sequence (D5DG39 1-189): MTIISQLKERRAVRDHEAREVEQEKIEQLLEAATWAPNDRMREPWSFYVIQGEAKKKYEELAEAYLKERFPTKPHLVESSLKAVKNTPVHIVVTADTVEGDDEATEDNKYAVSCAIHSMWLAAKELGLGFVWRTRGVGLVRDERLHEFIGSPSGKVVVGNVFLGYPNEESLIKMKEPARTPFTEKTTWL

| Compound | HPLC of DMB formed (BluB(Bm)) | HPLC of DMB formed; stopped-flow detection of 4a-peroxyflavin at 380 nm (BluB(Rc)) | UV-visible spectrum of purified holoprotein; heat release, HPLC and mass spectro (CbiY(Bm)) |
| --- | --- | --- | --- |
| Cc1cc2c(cc1C)N(C[C@H](O)[C@H](O)[C@H](O)COP(=O)(O)O)c1[nH]c(=O)[nH]c(=O)c1N2 [FMNH2] | DMB formation was observed in reaction mixtures containing either BluB(Rc) or BluB(Bm) | In the case of the BluB(Rc) enzyme, rapid formation of a peroxyflavin intermediate |  |
| Cc1cc2nc3c(=O)[nH]c(=O)nc-3n(C[C@H](O)[C@H](O)[C@H](O)COP(=O)(O)O)c2cc1C [FMN] |  |  | The flavin cofactor could be removed from the holoenzyme by denaturing the protein |
